Laboratory results as given in paper PMC8306634, “Antimicrobial and Antioxidative Activity of Newly Synthesized Peptides Absorbed into Bacterial Cellulose Carrier against Acne vulgaris” (International Journal of Molecular Sciences, 2021).
Converted amounts (≈) assume the structure as drawn. Where a SMILES comes first, the peptide text is derived from it. Side-chain parts run from the residue outwards. The star is where a group is joined. Lauroyl = CCCCCCCCCCCC(=O)*

Assays:
S. aureus = settings: 24 h
C. acnes = settings: 24 h
S. aureus biofilm = assay: Activity against Staphylococcus aureus biofilm (MBEC, TTC); type: cell-based; settings: for reduction of staphylococcal biofilm: 24 h, TTC read-out 490 nm, ANOVA with Tukey's test p < 0.05
Method: A total of 100µL of S. aureus suspension (10^5 cfu/mL) in TSB) medium was introduced to wells of 96-well plate and incubated at 37 °C/24 h without shaking. Next, whole medium was removed, leaving biofilm-forming organisms attached to the bottom of a 96-well plate. Subsequently, geometric dilutions of peptides in TSB (62.5–250 mg/L) were applied to the wells and left for another 24 h at 37 °C. The culture with no added peptide served as a positive control for microorganism growth, while the well containing the sterile TSB only served as a sterility control for the experiment. After incubation, 5 µL of triphenyl tetrazolium chloride (TTC, Sigma Aldrich, Taufkirchern, Germany) was added to each well and incubated for 5 h at 37 °C. A change of colorless TTC to red formazan confirmed the presence of metabolically active microorganisms. Next, the formazan was dissolved in methanol and its concentration was measured using a Thermo Scientific Multiskan Go spectrometer with a wavelength of 490 nm. In parallel, biofilms in plate wells were agitated using an automated pipette, removed from 96-well plates, and spotted on a stable (M-H) agar plate (Biomaxima, Lublin, Poland) where they were incubated for 48 h. The presence of living colonies on agar indicated the lack of MBEC, while the absence of colonies in the place where spotting was performed confirmed that the particular concentration of peptide can be considered the MBEC.

[1] = DPPH radical scavenging activity; settings: absorbance at 522 nm, 25 °C, triplicate
Method: The DPPH spectrometric method described by Brand, Williams et al. was applied due to its efficiency on lipophilic and hydrophilic samples [60]. The evaluation of free radical scavenging capacity (FRSC) was based on DPPH (Merck, Darmstadt, Germany) absorbance intensity resulting from its reaction with surfactants. A PG Instruments UV–Vis T60 spectrophotometer (Alab, Warszawa, Poland), interfaced with a computer with a quartz cuvette and of path length 1.0 cm at 25 °C, using a total volume of 3.0 mL, was applied in the range 190–900 nm. As a sample (As) 1.0 mL of P1–P6 aqueous solution (2 mg/mL) and 2.0 mL of ethanolic DPPH solution (5.9·10–2 mg/mL) were mixed and evaluated. As a blank (Ab), 1.0 mL of water, mixed with 2.0 mL of ethanol, was used. Absorbance decrease at 522 nm was measured in 2 min intervals for 6 h. FRSC was calculated as a percentage with the following equation: FRSC (%) = [(Ab – As)/Ab] × 100%. All measurements were performed in triplicate.

S. aureus 6538 [2] = settings: for antimicrobial activity against planktonic S. aureus (in words): Figure 4, highest tested 250 mg/L; for concentration at which reduction of staphylococcal cell number was observed: planktonic S. aureus, Figure 4; for MBC: 6538, 24 h
Method: For experimental purposes, the American type culture collection’s strains of S. aureus 6538 and C. acnes 6919 were applied.
The following standard procedure of MBC evaluation according to CLSI (Methods for Determining Bactericidal Activity of Antimicrobial Agents; Approved Guideline, document M26A, Global Laboratory Standards for a Healthier World, https://clsi.org, accessed on 15 December 2020) was performed. The 96-well plates with bacteria and peptide concentrations were performed and incubated as it was described in Section 2 of Material and Methods. Then the M-H agar plates with spots containing staphylococcal culture were incubated at 37 °C for 24 h. Lack of colony presence in the spot after incubation was considered as lack of microorganism growth, while presence of microbial colony in the spot was considered presence of microorganism growth. All experiments were performed in triplicate.

S. aureus 6538 [3] = assay: Minimal inhibitory concentration against planktonic Staphylococcus aureus; type: cell-based; settings: M-H broth, 24 h/37 °C, tested 0.48-250 mg/L, turbidity 580 nm, triplicate
Method: A loop of staphylococcal culture grown on Columbia agar plate (BioMaxima, Poland) was transferred to liquid tryptone soya broth (TSB, BTL) and incubated at 37 °C for 24 h. Next, culture’s optical density of 1 McFarland (3 × 10^8 cfu/mL) was established using a densitometer (Biomerieux, Poland). Subsequently, the suspension was diluted in the Miller-Hinton Broth (M-H, BioMaxima, Poland) to reach the density of 1 × 10^5 cells/mL. Afterwards, serial dilutions of each peptide was performed in M-H Broth in 96-well plate (BioStar, Germany). Next 100 μL of previously-prepared microbial suspension was added to each well. The highest concentration of each peptide tested in this experimental setting was thus 250 mg/L and it dropped twice in each subsequent well of 96-well plate up to 0.48 mg/L. Plates were incubated for 24 h/37 °C in shaker (Lab Companion, JeioTech, Daejeon, Korea). After incubation, the turbidity of bacterial culture was measured using Thermo Scientific Multiskan Go spectrometer (Thermo-Fischer Scientific, Vantaa, Finland) with wavelength of 580 nm. The microbial culture where no peptide was added served as growth control. The sterility control setting was M-H broth with no microorganism added. The tetrazolium salt (TTC) test served as additional analysis of microbial cell number reduction. All experiments were performed in triplicate.

Row | Compound | Inhibition Zone (S. aureus) [mm] | Inhibition Zone (C. acnes) [mm] | MBEC (S. aureus biofilm; 24 h S. aureus biofilm in TSB, peptides 62.5–250 mg/L for 24 h at 37 °C, spotting on M-H agar) | reduction of staphylococcal biofilm (S. aureus biofilm; exposure to 125 mg/L) | reduction of staphylococcal biofilm (S. aureus biofilm; exposure to 250 mg/L) | DPPH radicals inhibited over six hours ([1]; peptide 2 mg/mL, six hours) [%] | antimicrobial activity against planktonic S. aureus (in words) (S. aureus 6538 [2]) | concentration at which reduction of staphylococcal cell number was observed (S. aureus 6538 [2]) [mg/L] | time required for the extinction of fifty percent of the DPPH ([1]; peptide 2 mg/mL aqueous (1.0 mL) + 2.0 mL ethanolic DPPH 5.9·10–2 mg/mL) [min] | MBC (S. aureus 6538 [2]) [µg/mL] | MIC (S. aureus 6538 [3])
1 | NCCCC[C@H](NC(=O)[C@H](Cc1c[nH]c2ccccc12)NC(=O)[C@H](CCCCN)NC(=O)[C@H](Cc1c[nH]c2ccccc12)NC(=O)[C@H](CCCCNC(=O)[C@H](CCCCN)NC(=O)[C@H](Cc1c[nH]c2ccccc12)NC(=O)[C@H](CCCCN)NC(=O)[C@@H](N)Cc1c[nH]c2ccccc12)NC(=O)[C@H](CCCCN)NC(=O)[C@H](Cc1c[nH]c2ccccc12)NC(=O)[C@H](CCCCN)NC(=O)[C@@H](N)Cc1c[nH]c2ccccc12)C(N)=O [Peptide P2, (WKWK)2-KWKWK-NH2] (H-WKWKK([Lys-Trp-Lys-Trp])WKWK-NH2) | 0 | 1.6 ± 0.9 | not achieved | significant reduction | significant reduction |  |  |  |  |  | 
2 | CCCCCCCCCCCC(=O)NCCCC[C@H](NC(=O)CCCCCCCCCCC)C(=O)N[C@@H](CCCCN)C(=O)N[C@@H](CCCCN)C(=O)N[C@@H](CCCCN)C(N)=O [Peptide P4, (C12)2-KKKK-NH2] (Lauroyl-K(Lauroyl)KKK-NH2) | 0 | 0 |  | significant reduction | significant reduction | < 20 | highest anti-staphylococcal activity | 62.5 |  |  | 
3 | NCCCC[C@H](NC(=O)[C@H](Cc1c[nH]c2ccccc12)NC(=O)[C@@H](N)CCCCN)C(=O)NCCCC[C@H](NC(=O)[C@H](CCCCN)NC(=O)[C@H](Cc1c[nH]c2ccccc12)NC(=O)[C@@H](N)CCCCN)C(=O)N[C@@H](Cc1c[nH]c2ccccc12)C(=O)N[C@@H](Cc1c[nH]c2ccccc12)C(=O)N[C@@H](Cc1c[nH]c2ccccc12)C(N)=O [Peptide P5, (KWK)2-KWWW-NH2] (H-KWKK([Lys-Trp-Lys])WWW-NH2; N-terminus assumed) | 1 | 2 |  |  | significant reduction |  |  | 125 | 124 | 250 (≈ 157 µM) | 
4 | NCCCC[C@H](NC(=O)[C@@H](N)CCCCN)C(=O)NCCCC[C@H](NC(=O)[C@H](CCCCN)NC(=O)[C@@H](N)CCCCN)C(=O)N[C@@H](Cc1c[nH]c2ccccc12)C(=O)N[C@@H](Cc1c[nH]c2ccccc12)C(=O)N[C@@H](Cc1c[nH]c2ccccc12)C(N)=O [Peptide P6, (KK)2-KWWW-NH2] (H-KKK([Lys-Lys])WWW-NH2; N-terminus assumed) | 0 | 0 |  | significant reduction | significant reduction |  |  | 125 |  | 250 (≈ 205 µM) | 
5 | (WK)2-KWK-NH2 [Peptide P1] |  |  |  |  |  |  | lack of antimicrobial activity |  |  |  | not observed
6 | (WR)2-KWR-NH2 [Peptide P3] |  |  |  |  |  |  | recordable antimicrobial activity, however only in the highest concentrations of 250 mg/L |  |  |  | 
